Source: PubChem BioAssay (NCI)
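Protocol summary: plate cells (96-well), add compound at 5 concentrations, incubate 48 h, interpolate endpoints linearly. TGI is the concentration that stops growth completely.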

Legend:
Experiment in all cases: NCI-60 cell line screen, 48 h
SK-MEL-5 melanoma = test system: SK-MEL-5 melanoma
RXF 393 renal = test system: RXF 393 renal
U251 CNS = test system: U251 CNS
UO-31 renal = test system: UO-31 renal
KM12 colon = test system: KM12 colon
NCI-H23 lung = test system: NCI-H23 lung
EKVX NSCLC = test system: EKVX NSCLC
SNB-75 CNS = test system: SNB-75 CNS
HS 578T breast = test system: HS 578T breast

Row | Compound | TGI (SK-MEL-5 melanoma) | TGI (RXF 393 renal) | TGI (U251 CNS) | TGI (UO-31 renal) | TGI (KM12 colon) | TGI (NCI-H23 lung) | TGI (EKVX NSCLC) | TGI (SNB-75 CNS) | TGI (HS 578T breast)
1 | Cc1ccc2c(n1)C(=O)c1ccccc1C2=O | 19.7 µM | 87.2 µM | 97.7 µM | > 92.7 µM | > 100 µM | 38.1 µM | 96.3 µM | 92.4 µM | > 100 µM
2 | Cn1c(-c2cccs2)cc(-c2cccs2)c1-c1ccsc1 | > 100 µM | > 100 µM | > 100 µM | > 100 µM | > 100 µM | > 100 µM | > 100 µM | > 100 µM | > 100 µM
3 | Cc1ccc(Nc2cc(=O)[nH]c(=S)[nH]2)cc1 | > 100 µM | > 100 µM | > 100 µM | > 100 µM | > 100 µM | > 100 µM | > 100 µM | > 100 µM | > 100 µM
4 | COC(=O)c1csc(-c2nc(CCNC(=O)OC(C)(C)C)sc2Br)n1 | > 100 µM | > 100 µM | > 100 µM | > 100 µM | > 100 µM | > 100 µM | > 100 µM | > 100 µM | > 100 µM
5 | CNC(=S)N/N=C/c1cccc(C)n1 | > 74.9 µM | 97.4 µM | > 100 µM | > 100 µM | > 100 µM | > 81.2 µM | > 100 µM | 90.9 µM | > 100 µM
6 | COC(=O)c1cc(C#Cc2cc(OC)ccc2OC)ccc1OC | 53.1 µM | 84.1 µM | > 100 µM | > 100 µM | > 100 µM | > 100 µM | > 100 µM | > 100 µM | > 100 µM
7 | COC(=O)c1c(C)cccc1CC1Cc2c(C)cccc2C1=O (stereo not given) | 37.5 µM | > 100 µM | > 100 µM | 71 µM | 73.2 µM | 99.5 µM | > 100 µM | > 100 µM | > 100 µM
8 | COc1cc(COC(=O)N2CCC2C(=O)O)c([N+](=O)[O-])cc1OC (stereo not given) | > 100 µM | > 100 µM | > 100 µM | > 100 µM | > 100 µM | > 100 µM | > 100 µM | > 100 µM | > 100 µM
9 | COC(=O)/N=[N+](\[O-])C(c1ccc(OC)cc1)C1CCCCC1 (stereo not given) | > 41.4 µM | 28.3 µM | 20.1 µM | 21.5 µM | 16.7 µM | 22.6 µM | > 44.1 µM | 20.8 µM | 40.7 µM
10 | O=C(CSCC(=O)N/N=C\c1ccc(-c2ccccc2)cc1)N/N=C\c1ccc(-c2ccccc2)cc1 | > 100 µM | > 100 µM | 31.5 µM | > 100 µM | 49.2 µM | 35.4 µM | > 100 µM | 41.6 µM | 49.8 µM
11 | COCc1cc2c(cc1/C=C/[N+](=O)[O-])OCO2 | 37.6 µM | 32.3 µM | 31.6 µM | 30.9 µM | 35.8 µM | 44 µM | 36.5 µM | 31.9 µM | 44.3 µM
12 | Nc1nc(Cl)cc(Nc2cc(Cl)cc(Cl)c2)n1 | 33.9 µM | 38.3 µM | 38.4 µM | 36.5 µM | 37.7 µM | 48.6 µM | 45.7 µM | 39.5 µM | 41.1 µM
13 | Clc1ccc(C2NN=C3c4ccccc4OCC32)cc1 (stereo not given) | 20.4 µM | 41.3 µM | > 56.8 µM | 41.4 µM | > 37.9 µM | 51 µM | 27.2 µM | > 100 µM | 14.6 µM
14 | CC[C@H]1OC([C@H](O)C/C=C\C#C[Si](C)(C)C)C/C=C\C[C@H]1O[Si](C)(C)C(C)(C)C (stereo not given in full) | > 100 µM | > 100 µM | > 100 µM | > 100 µM | > 100 µM | > 100 µM | > 100 µM | > 100 µM | > 100 µM
15 | COc1ccc(CCNC(=O)Cc2cc(OC)c(OC)cc2CO)cc1OC | > 100 µM | > 100 µM | > 100 µM | > 100 µM | > 100 µM | > 100 µM | > 100 µM | > 100 µM | > 100 µM
16 | CCCCOC(=O)C(O)Cc1ccoc1 (stereo not given) | > 100 µM | > 100 µM | > 100 µM | > 100 µM | > 100 µM | > 100 µM | > 100 µM | > 100 µM | > 100 µM
17 | COCCOCCOC1=C(Cl)C(=O)c2c(O)ccc(O)c2C1=O | 3.79 µM | 2.99 µM | 17.4 µM | 4.83 µM | 31.9 µM | 6.03 µM | 21.7 µM | 31.5 µM | 7.9 µM
18 | Cc1nc2c(sc3nc4ccccc4n32)c(=O)[nH]1 | > 100 µM | > 100 µM | > 100 µM | > 100 µM | > 100 µM | > 100 µM | > 100 µM | > 100 µM | > 100 µM
19 | Brc1ccc2[nH]cc(-c3nc(-c4c[nH]c5ccccc45)cs3)c2c1 | 4.01 µM | 16 µM | 8.38 µM | 13.9 µM | 5.1 µM | 8.84 µM | 12.3 µM | 25.1 µM | > 47.9 µM
20 | CN(CCc1ccc(N)cc1)[C@H]1CCCC[C@H]1N1CCCC1 | > 100 µM | > 100 µM | > 100 µM | > 100 µM | > 100 µM | > 100 µM | > 100 µM | > 100 µM | > 100 µM
